# Article PMC7845594, “Novel Immune Modulators Enhance Caenorhabditis elegans Resistance to Multiple Pathogens” (mSphere, 2021)
# Legend:
# [1] = system: C. elegans host defense pathway genes; assay: nanoString expression of 115 immune- and stress-responsive genes; settings: 100 μM LK molecules, 16 h
# Procedure: The ratio of MIC to EC was determined for each of the 69 compounds.
# Analysis of the expression of 115 immune- and stress-responsive genes using nanoString technology. Download Table S1, XLSX file, 0.02 MB.
# For nanoString-based (nanoString Technologies, Seattle, WA) experiments, 2,000 wild-type, young adult worms were exposed to 100 μM LK molecules or DMSO control in S Basal medium in 6-well plates for 16 h. RNA purification and gene expression analysis were performed according to nanoString guidelines. Two biological replicates were tested for each condition.
# [2] = system: C. elegans exposed to P. aeruginosa strain PA14; assay: P. aeruginosa slow-killing assay (agar); assay type: in vivo, Caenorhabditis elegans; settings: wild-type young adult worms, 50 µM
# Text: The finding that each of the compounds activated PMK-1/p38 MAPK targets was of interest, as this pathway is associated with enhanced immunity against multiple bacterial pathogens in agar-based C. elegans assays. Therefore, we tested whether these compounds could promote survival in an agar-based, high-colonization pathogenesis model known as slow killing. Loss of PMK-1 activity substantially compromises survival in the slow-killing assay ([16], [47]). Wild-type, young adult worms were exposed to P. aeruginosa strain PA14 on agar plates impregnated with each of the five compounds. […] To see whether this depended upon the PMK-1 pathway, LK32, LK38, and LK56 were retested in worms where RNAi was used to knock down pmk-1/MAPK or atf-7/ATF7 (a key transcription factor whose activity is modulated by PMK-1 [63, 64]) (Fig. 9; see Table S2 in the supplemental material for TD50 and overall statistical significance).
# FIG 8 Four LK molecules extend C. elegans life span in the slow-killing assay. […] The data shown are from a representative replicate. Each of the three biological replicates was comprised of three plates per condition, with each plate containing ∼60 worms. Statistical significance was calculated using a log-rank test. Worms that left the surface of the plate were excluded from analysis (see Table S2 in the supplemental material for TD50 and exact P values).
# FIG 9 Rescue in slow killing by a subset of LK compounds depends upon the PMK-1/p38 MAPK pathway. Wild-type L4 worms were reared on RNAi targeting pmk-1/p38 MAPK, atf-7/ATF-7, or empty vector and placed onto slow-killing plates containing DMSO or LK32 (A and B), LK38 (C and D), or LK56 (E and F) at 50 µM. Starting at 24 h, worms were scored every 12 h for survival until all worms perished. Each of the three biological replicates was comprised of three plates, each plate contained approximately 50 to 70 worms. Statistical significance was calculated using log-rank test (see Table S2 in the supplemental material for TD50 and exact P values). For vector RNAi, DMSO versus compound, P < 0.001 for LK38, LK56, and LK32.
# Supplementary file : FIG S5 NSY-1 and SEK-1, upstream members of the PMK-1/p38 MAPK pathway, are required for LK38-mediated rescue. Young adult wild-type, nsy-1/MAP3K15(ag3), or sek-1/MAP2K6(km-4) mutants were exposed to P. aeruginosa in the slow-killing assay in the presence of DMSO or LK38. Data for each condition at each time point represent the average value for three plates from one representative replicate (of three replicates total). Each plate contained ∼60 worms. P values were calculated using a log-rank test (see Table S2 in the supplemental material for the TD50 and exact P values). For wild-type DMSO versus LK38 P < 0.001. No statistically significant difference was measured between LK38 and DMSO for either mutant. Download FIG S5, PDF file, 0.1 MB.
# Slow-killing (SK) plates were made as previously reported ([92]). Compounds were added to molten SK agar before pouring plates. After solidifying, 40 µl of PA14 overnight culture was spread on plates before incubating plates at 37°C for 24 h, followed by 25°C for 24 h. 5-fluoro-2′-deoxyuridine (FUDR) (0.1 mg/ml) was dropped on plates 30 min prior to picking worms, to ensure nematode sterility. Fifty to seventy L4-stage, wild-type worms were picked onto plates and scored every 12 h after the first 24 h, until all worms were dead. Three biological replicates were performed.
compound,measurement,setting,value
CNC(=O)Oc1c(Br)cc2sc(=O)oc2c1Br [LK34],"B0024.4 expression, induction",[1],0.79 fold
same,"C02B4.2 nhr-17 expression, induction",[1],1.60 fold
same,"C03G6.15 cyp-35A2 expression, induction",[1],2.32 fold
same,"C06B3.3 cyp-35C1 expression, induction",[1],2.40 fold
same,"C06B3.7 expression, induction",[1],2.34 fold
same,"C07G3.2 irg-1 expression, induction",[1],2.14 fold
same,"C12C8.1 hsp-70 expression, induction",[1],2.02 fold
same,"C15F1.7 sod-1 expression, induction",[1],2.23 fold
same,"C29F7.2 expression, induction",[1],1.42 fold
same,"C31A11.5 oac-6 expression, induction",[1],3.81 fold
same,"C32D5.12 expression, induction",[1],2.84 fold
same,"C32H11.1 expression, induction",[1],5.22 fold
same,"C32H11.3 expression, induction",[1],4.04 fold
same,"C34G6.4 pgp-2 expression, induction",[1],1.78 fold
same,"C37C3.10 expression, induction",[1],2.56 fold
same,"C37H5.8 hsp-6 expression, induction",[1],2.28 fold
same,"C49G7.5 irg-2 expression, induction",[1],2.61 fold
same,"F08F8.5 numr-1 expression, induction",[1],3.73 fold
same,"F08H9.4 expression, induction",[1],2.08 fold
same,"F14F9.3 expression, induction",[1],2.72 fold
same,"F22B5.4 expression, induction",[1],0.86 fold
same,"F22H10.2 expression, induction",[1],1.72 fold
same,"F26A3.4 expression, induction",[1],1.09 fold
same,"F35E8.11 cdr-1 expression, induction",[1],3.15 fold
same,"F35G2.4 phy-2 expression, induction",[1],1.71 fold
same,"F37B12.2 gcs-1 expression, induction",[1],4.32 fold
same,"F43E2.8 hsp-4 expression, induction",[1],2.24 fold
same,"F44E5.5 expression, induction",[1],1.49 fold
same,"F49F1.6 expression, induction",[1],1.85 fold
same,"F49F1.7 expression, induction",[1],3.64 fold
same,"F49H6.13 expression, induction",[1],2.55 fold
same,"F54B8.4 expression, induction",[1],1.78 fold
same,"F55G11.2 expression, induction",[1],1.39 fold
same,"F59A7.1 clec-206 expression, induction",[1],2.12 fold
same,"F59B10.4 expression, induction",[1],1.89 fold
same,"H12D21.1 nspa-1 expression, induction",[1],39.17 fold
same,"H23N18.1 ugt-13 expression, induction",[1],2.95 fold
same,"H23N18.3 ugt-8 expression, induction",[1],5.59 fold
same,"K05B2.4 expression, induction",[1],3.62 fold
same,"K07C6.3 cyp-35B2 expression, induction",[1],4.00 fold
same,"K07G6.4 cyp-35B1 expression, induction",[1],2.31 fold
same,"K08F4.7 gst-4 expression, induction",[1],9.69 fold
same,"K09A9.1 nipi-3 expression, induction",[1],1.52 fold
same,"K09D9.2 cyp-35A3 expression, induction",[1],3.13 fold
same,"K10D11.2 expression, induction",[1],1.97 fold
same,"K10G4.3 expression, induction",[1],2.74 fold
same,"R03D7.6 gst-5 expression, induction",[1],9.49 fold
same,"R08H2.1 dhs-23 expression, induction",[1],3.44 fold
same,"R10E8.3 expression, induction",[1],2.60 fold
same,"T19D12.3 expression, induction",[1],3.00 fold
same,"T19H12.1 ugt-9 expression, induction",[1],2.48 fold
same,"T21E8.1 pgp-6 expression, induction",[1],2.62 fold
same,"T22B7.3 expression, induction",[1],1.84 fold
same,"T24C4.4 expression, induction",[1],2.67 fold
same,"T24E12.5 expression, induction",[1],4.33 fold
same,"T27E4.3 hsp-16.48 expression, induction",[1],1.73 fold
same,"T27E4.8 hsp-16.1 expression, induction",[1],1.82 fold
same,"T27F6.8 expression, induction",[1],1.45 fold
same,"T28C12.4 expression, induction",[1],1.59 fold
same,"W02D9.10 expression, induction",[1],1.15 fold
same,"Y22D7AL.5 hsp-60 expression, induction",[1],1.77 fold
same,"Y38E10A.15 nspe-7 expression, induction",[1],2.14 fold
same,"Y46H3A.2 hsp-16.41 expression, induction",[1],2.00 fold
same,"Y46H3A.3 hsp-16.2 expression, induction",[1],1.72 fold
same,"Y56A3A.33 expression, induction",[1],1.77 fold
same,"Y58A7A.5 expression, induction",[1],3.10 fold
same,"ZC376.7 atfs-1 expression, induction",[1],1.86 fold
same,"ZC443.6 ugt-16 expression, induction",[1],2.76 fold
same,"ZK697.6 gst-21 expression, induction",[1],2.66 fold
same,Survival in slow-killing assay vs DMSO,[2],improved survival
